Where a name gives a salt, the structure may show the parent alone.
Experiments:
hearing loss = test: Case report: hearing loss / audiogram in patient treated with sildenafil citrate; assay type: in vivo, human
Text: A person suffering for several years from severe tinnitus and hearing loss in their right ear had repeatedly sought medical advice and tried many alleged therapies for their tinnitus, none of which was effective. […] Other than that they are in good health and receives no medications. Recently they were prescribed sildenafil citrate for improving their sexual performance. […] For instance, at frequencies of 500-1000 Hz, hearing in their right ear improved from 50-55 dB to 30 dB.

tinnitus = test: Case reports: tinnitus in patients treated with sildenafil citrate; assay type: in vivo, human
Text: A person suffering for several years from severe tinnitus and hearing loss in their right ear had repeatedly sought medical advice and tried many alleged therapies for their tinnitus, none of which was effective. […] Other than that they are in good health and receives no medications. Recently they were prescribed sildenafil citrate for improving their sexual performance. […] A person known to have bilateral tinnitus and hearing loss for more than 20 years. Other than hypertension, for which they are treated, they are in good health. They were prescribed sildenafil citrate, 25 mg daily, for the tinnitus.

[1] = patients suffering from tinnitus

CCCc1nn(C)c2c(=O)[nH]c(-c3cc(S(=O)(=O)N4CCN(C)CC4)ccc3OCC)nc12 [sildenafil]
effect on hearing loss (general statement) (hearing loss; [1]): ameliorating hearing loss | effect on tinnitus (general statement) (tinnitus; [1]): effective in reducing tinnitus

CCCc1nn(C)c2c(=O)[nH]c(-c3cc(S(=O)(=O)N4CCN(C)CC4)ccc3OCC)nc12 [sildenafil citrate, 1-[[3-(6,7-dihydro-1-methyl-7-oxo-3-propyl-1H-pyrazolo [4,3-d]pyrimidin-5-yl)-4-ethoxyphenyl]sulfonyl]4-methylpiperazine citrate]
audiogram (overall) (hearing loss; Example 1: after several months treatment): marked improvement | hearing in right ear after treatment (audiogram) (hearing loss; Example 1: frequencies of 500-1000 Hz, after several months treatment, improved from 50-55 dB before treatment): 30 dB | hearing (patient report) (hearing loss; Example 1: person, hearing loss in right ear, on continued treatment): significant improvement in their hearing | effect on tinnitus (tinnitus; Example 1: person, severe tinnitus in right ear, first course of sildenafil citrate): amelioration of the tinnitus, which eventually nearly disappeared | tinnitus status on continued treatment (tinnitus; Example 1: person, continues on sildenafil citrate): practically tinnitus-free | return of the tinnitus after cessation of the medication (tinnitus; Example 1: person, intentional stop of the medication): 2-3 weeks | severity of tinnitus on rechallenge (tinnitus; Example 1: person, rechallenge 25 mg twice weekly): reduced the severity of tinnitus within a week and proceeded to almost complete disappearance of the symptom | effect on tinnitus (tinnitus; Example 2: person, bilateral tinnitus, 25 mg daily, starting after the 5th daily dose, persisted as long as drug taken): marked reduction in their tinnitus

— patent US6693107B1, “Pharmaceutical composition useful for the treatment of tinnitus and hearing loss” (priority 1999, dated 2004)
